# Columns and labels:
# [1] = molecular target: Substance-P receptor (Homo sapiens, UniProt P25103); test: Inhibitory activity against human tachykinin receptor 1
# [2] = molecular target: T1, Substance-K receptor (Homo sapiens, UniProt P21452); test: Inhibitory activity against human tachykinin receptor 2
# T1 sequence (P21452 whole entry): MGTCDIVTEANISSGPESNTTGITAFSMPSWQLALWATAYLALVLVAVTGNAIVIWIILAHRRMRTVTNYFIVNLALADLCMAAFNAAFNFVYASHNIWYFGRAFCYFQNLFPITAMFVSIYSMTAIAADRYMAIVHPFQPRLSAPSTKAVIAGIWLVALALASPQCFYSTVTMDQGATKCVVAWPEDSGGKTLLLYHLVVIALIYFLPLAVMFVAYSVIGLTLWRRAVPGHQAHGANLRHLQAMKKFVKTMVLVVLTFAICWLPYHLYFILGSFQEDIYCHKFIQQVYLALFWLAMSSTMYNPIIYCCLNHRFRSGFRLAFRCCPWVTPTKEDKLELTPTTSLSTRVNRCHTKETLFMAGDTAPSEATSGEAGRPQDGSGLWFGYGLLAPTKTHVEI
# Sequence of Substance-P receptor (P25103 whole entry): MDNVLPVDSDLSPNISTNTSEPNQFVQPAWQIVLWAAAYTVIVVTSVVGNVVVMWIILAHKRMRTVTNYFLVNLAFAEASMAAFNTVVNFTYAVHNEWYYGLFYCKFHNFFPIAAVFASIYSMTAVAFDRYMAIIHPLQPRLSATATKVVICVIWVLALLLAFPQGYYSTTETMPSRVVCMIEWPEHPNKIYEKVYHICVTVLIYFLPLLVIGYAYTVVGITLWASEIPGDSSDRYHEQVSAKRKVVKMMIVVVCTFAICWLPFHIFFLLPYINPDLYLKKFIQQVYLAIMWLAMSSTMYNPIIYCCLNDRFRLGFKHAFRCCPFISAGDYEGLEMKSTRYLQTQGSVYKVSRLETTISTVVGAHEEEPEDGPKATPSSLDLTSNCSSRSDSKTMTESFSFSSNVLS
SMILES,Ki [1] [nM],Ki [2] [nM]
CO/N=C(\COCc1cc(C(F)(F)F)cc(C(F)(F)F)c1)C(CCN1CCN(CC(=O)NC2CCc3ccccc32)CC1)c1ccc(Cl)c(Cl)c1 (configuration not stated),136,> 680
CO/N=C(\COCc1cc(C(F)(F)F)cc(C(F)(F)F)c1)C(CCN1CCN(c2ccccc2)CC1)c1ccc(Cl)c(Cl)c1 (configuration not stated),181,978
CO/N=C(\COCc1cc(C(F)(F)F)cc(C(F)(F)F)c1)C(CCN1CCN(CC(=O)N2CCC(NC(C)=O)C2)CC1)c1ccc(Cl)c(Cl)c1 (configuration not stated),9,48
CO/N=C(\COCc1cc(C(F)(F)F)cc(C(F)(F)F)c1)C(CCN1CCN(CC(=O)N2CCC2)CC1)c1ccc(Cl)c(Cl)c1 (configuration not stated),23,33
CO/N=C(\COCc1cc(C(F)(F)F)cc(C(F)(F)F)c1)C(CCN1CCN(C)CC1)c1ccc(Cl)c(Cl)c1 (configuration not stated),61,200
CO/N=C(\COCc1cc(C(F)(F)F)cc(C(F)(F)F)c1)C(CCN1CCN(CC(=O)N2CCCC2)CC1)c1ccc(Cl)c(Cl)c1 (configuration not stated),14,21
CO/N=C(\COCc1cc(C(F)(F)F)cc(C(F)(F)F)c1)C(CCN1CCN(CC(=O)N2CCOCC2)CC1)c1ccc(Cl)c(Cl)c1 (configuration not stated),19,28
CCOC(=O)C1CCN(C(=O)CN2CCN(CCC(/C(COCc3cc(C(F)(F)F)cc(C(F)(F)F)c3)=N/OC)c3ccc(Cl)c(Cl)c3)CC2)CC1 (configuration not stated),24,409
CO/N=C(\COCc1cc(C(F)(F)F)cc(C(F)(F)F)c1)C(CCN1CCN(CC(=O)N2CCCC(O)C2)CC1)c1ccc(Cl)c(Cl)c1 (configuration not stated),13,38
CO/N=C(\COCc1cc(C(F)(F)F)cc(C(F)(F)F)c1)C(CCN1CCN(CC(=O)N2CCC(O)C2)CC1)c1ccc(Cl)c(Cl)c1 (configuration not stated),16,30
CO/N=C(\COCc1cc(C(F)(F)F)cc(C(F)(F)F)c1)C(CCN1CCN(CC(=O)N2CC(O)C2)CC1)c1ccc(Cl)c(Cl)c1 (configuration not stated),22,31
CO/N=C(\COCc1cc(C(F)(F)F)cc(C(F)(F)F)c1)C(CCN1CCN(CC(=O)N(C(C)C)C(C)C)CC1)c1ccc(Cl)c(Cl)c1 (configuration not stated),82,170
CO/N=C(\COCc1cc(C(F)(F)F)cc(C(F)(F)F)c1)C(CCN1CCN(CC(=O)N(C)C2CCCCC2)CC1)c1ccc(Cl)c(Cl)c1 (configuration not stated),113,368
CO/N=C(\COCc1cc(C(F)(F)F)cc(C(F)(F)F)c1)C(CCN1CCN(CC(=O)N2CCC[C@H]2C(N)=O)CC1)c1ccc(Cl)c(Cl)c1 (some centres not stated),24,26
CO/N=C(\COCc1cc(C(F)(F)F)cc(C(F)(F)F)c1)C(CCN1CCN(CC(=O)NCC2CCCO2)CC1)c1ccc(Cl)c(Cl)c1 (configuration not stated),20,266
CO/N=C(\COCc1cc(C(F)(F)F)cc(C(F)(F)F)c1)C(CCN1CCN(C2CCCCC2)CC1)c1ccc(Cl)c(Cl)c1 (configuration not stated),53,128

# Other lines, results leading:
Ki [1] [nM],Ki [2] [nM],SMILES
47,52,CO/N=C(\COCc1cc(C(F)(F)F)cc(C(F)(F)F)c1)C(CCN1CCN(CC(=O)N2CCCCC2CO)CC1)c1ccc(Cl)c(Cl)c1 (configuration not stated)
125,> 680,CO/N=C(\COCc1cc(C(F)(F)F)cc(C(F)(F)F)c1)C(CCN1CCN(CC(=O)Nc2ccccc2)CC1)c1ccc(Cl)c(Cl)c1 (configuration not stated)
70,217,CO/N=C(\COCc1cc(C(F)(F)F)cc(C(F)(F)F)c1)C(CCN1CCN(c2ncccn2)CC1)c1ccc(Cl)c(Cl)c1 (configuration not stated)
125,566,CO/N=C(\COCc1cc(C(F)(F)F)cc(C(F)(F)F)c1)C(CCN1CCN(CC(=O)N2CCc3ccccc3C2)CC1)c1ccc(Cl)c(Cl)c1 (configuration not stated)
14,95,CO/N=C(\COCc1cc(C(F)(F)F)cc(C(F)(F)F)c1)C(CCN1CCN(CC(=O)N2CCC(N(C)C)C2)CC1)c1ccc(Cl)c(Cl)c1 (configuration not stated)
82,208,CO/N=C(\COCc1cc(C(F)(F)F)cc(C(F)(F)F)c1)C(CCN1CCN(CC(=O)N2CCCCC2)CC1)c1ccc(Cl)c(Cl)c1 (configuration not stated)
39,382,CCOCCCNC(=O)CN1CCN(CCC(/C(COCc2cc(C(F)(F)F)cc(C(F)(F)F)c2)=N/OC)c2ccc(Cl)c(Cl)c2)CC1 (configuration not stated)
30,738,CO/N=C(\COCc1cc(C(F)(F)F)cc(C(F)(F)F)c1)C(CCN1CCNCC1)c1ccc(Cl)c(Cl)c1 (configuration not stated)
136,477,CO/N=C(\COCc1cc(C(F)(F)F)cc(C(F)(F)F)c1)C(CCN1CCN(CC(=O)N2CCCC3CCCCC32)CC1)c1ccc(Cl)c(Cl)c1 (configuration not stated)
62,259,CO/N=C(\COCc1cc(C(F)(F)F)cc(C(F)(F)F)c1)C(CCN1CCN(CC(=O)NC2CC2)CC1)c1ccc(Cl)c(Cl)c1 (configuration not stated)
